Reference: BindingDB's records for patent US20240109893 (Shanghai Kechow Pharma, 2024)

Molecular target: GTPase KRas [G12C] (Homo sapiens, UniProt P01116, G12C)
Assay: KRAS G12C-GDP Exchange Assay
Protocol: 1. […] 2. […] The IC50 (median inhibitory concentration) of the compound was obtained by the following non-linear fitting formula: Y=Bottom+(Top−Bottom)/(1+10^((Log IC50−X)*Hill Slope)), and the data were analyzed by Graphpad 6-0 software.

Chain of GTPase KRas [G12C] (P01116 whole entry G12C): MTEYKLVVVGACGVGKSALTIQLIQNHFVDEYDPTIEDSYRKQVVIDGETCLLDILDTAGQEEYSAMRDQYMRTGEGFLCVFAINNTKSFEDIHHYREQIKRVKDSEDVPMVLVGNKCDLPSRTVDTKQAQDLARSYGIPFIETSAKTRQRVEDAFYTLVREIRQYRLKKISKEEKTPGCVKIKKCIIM

IC50: 1.44 nM
SMILES: C=CC(=O)N1CCN(c2nc(OC[C@@H]3CCCN3C)nc3cc(-c4cccc5cccc(Cl)c45)c(F)cc23)C[C@@H]1CC#N [US20240109893, Example 394]
